The record followed here is patent US9580431B2, “Inhibitors of human immunodeficiency virus replication” (priority 2013, dated 2017).

What is called EC50 is the concentration that produces a half-maximal response.

The assay has as its system recombinant NL-Rluc virus. Kind of assay: microbe, parasite or virus in culture. Format: cell-based, HIV. Conditions: Human immunodeficiency virus 1, MT2, 120 h, NL-RLuc virus infecting MT-2 cells, 5 days of incubation, luciferase readout; at least 2 experiments; serum condition not given; read-out: EC50.
As for `Cc1nc2cc(-c3nc4cc(Cl)ccc4[nH]3)nn2c(-c2cc(F)c3c(c2C)CCCO3)c1[C@H](OC(C)(C)C)C(=O)O` [Example 1, (2S)-2-(tert-Butoxy)-2-(2-(5-chloro-1H-benzo[d]imidazol-2-yl)-7-(8-fluoro-5-methylchroman-6-yl)-5-methylpyrazolo[1,5-a]pyrimidin-6-yl)acetic acid], the EC50 came to 47 nM.

Take `Cc1nc2cc(-c3nc4cc(Cl)ccc4n3C)nn2c(-c2cc(F)c3c(c2C)CCCO3)c1[C@H](OC(C)(C)C)C(=O)O` [Example 2, (2S)-2-(tert-Butoxy)-2-(2-(5-chloro-1-methyl-1H-benzo[d]imidazol-2-yl)-7-(8-fluoro-5-methylchroman-6-yl)-5-methylpyrazolo[1,5-a]pyrimidin-6-yl)acetic acid]: the EC50 came to 50 nM.

`Cc1nc2cc(-c3nc4ccc(Cl)cc4n3C)nn2c(-c2cc(F)c3c(c2C)CCCO3)c1[C@H](OC(C)(C)C)C(=O)O` [Example 3, (2S)-2-(tert-Butoxy)-2-(2-(6-chloro-1-methyl-1H-benzo[d]imidazol-2-yl)-7-(8-fluoro-5-methylchroman-6-yl)-5-methylpyrazolo[1,5-a]pyrimidin-6-yl)acetic acid]: the EC50 is 100 nM.

`Cc1nc2cc(-c3nc4cc(-c5ccccc5)ccc4[nH]3)nn2c(-c2cc(F)c3c(c2C)CCCO3)c1[C@H](OC(C)(C)C)C(=O)O` [Example 4, (2S)-2-(tert-Butoxy)-2-(7-(8-fluoro-5-methylchroman-6-yl)-5-methyl-2-(5-phenyl-1H-benzo[d]imidazol-2-yl)pyrazolo[1,5-a]pyrimidin-6-yl)acetic acid]: the EC50 came out at 133 nM.

On to `Cc1nc2cc(-c3ncc(Cc4ccc(F)cc4)s3)nn2c(-c2cc(F)c3c(c2C)CCCO3)c1[C@H](OC(C)(C)C)C(=O)O` [Example 5, (2S)-2-(tert-Butoxy)-2-(7-(8-fluoro-5-methylchroman-6-yl)-2-(5-(4-fluorobenzyl)thiazol-2-yl)-5-methylpyrazolo[1,5-a]pyrimidin-6-yl)acetic acid], for which the EC50 stood at 3 nM.

In the case of `Cc1nc2cc(-c3ncc(Cc4ccc(F)cc4)o3)nn2c(-c2cc(F)c3c(c2C)CCCO3)c1[C@H](OC(C)(C)C)C(=O)O` [Example 6, (2S)-2-(tert-Butoxy)-2-(7-(8-fluoro-5-methylchroman-6-yl)-2-(5-(4-fluorobenzyl)oxazol-2-yl)-5-methylpyrazolo[1,5-a]pyrimidin-6-yl)acetic acid], the EC50 is 6 nM.

`Cc1nc2cc(-c3nc(Cc4ccc(F)cc4)no3)nn2c(-c2cc(F)c3c(c2C)CCCO3)c1[C@H](OC(C)(C)C)C(=O)O` [Example 7, (2S)-2-(tert-Butoxy)-2-(7-(8-fluoro-5-methylchroman-6-yl)-2-(3-(4-fluorobenzyl)-1,2,4-oxadiazol-5-yl)-5-methylpyrazolo[1,5-a]pyrimidin-6-yl)acetic acid]: the EC50 was determined as 28 nM.

On to `Cc1nc2cc(-c3ncc(-c4ccc(F)cc4)s3)nn2c(-c2cc(F)c3c(c2C)CCCO3)c1[C@H](OC(C)(C)C)C(=O)O` [Example 8, (2S)-2-(tert-Butoxy)-2-(7-(8-fluoro-5-methylchroman-6-yl)-2-(5-(4-fluorophenyl)thiazol-2-yl)-5-methylpyrazolo[1,5-a]pyrimidin-6-yl)acetic acid], for which the EC50 amounted to 11 nM.

For the compound `Cc1nc2cc(-c3ncc(-c4cccc(F)c4)s3)nn2c(-c2cc(F)c3c(c2C)CCCO3)c1[C@H](OC(C)(C)C)C(=O)O` [Example 9, (2S)-2-(tert-Butoxy)-2-(7-(8-fluoro-5-methylchroman-6-yl)-2-(5-(3-fluorophenyl)thiazol-2-yl)-5-methylpyrazolo[1,5-a]pyrimidin-6-yl)acetic acid], the EC50 was determined as 28 nM.

With `Cc1nc2cc(-c3ncc(Cc4ccc(F)cc4)s3)nn2c(C2=CCC(C)(C)CC2)c1[C@H](OC(C)(C)C)C(=O)O` [Example 10, (S)-2-(tert-Butoxy)-2-(7-(4,4-dimethylcyclohex-1-en-1-yl)-2-(5-(4-fluorobenzyl)thiazol-2-yl)-5-methylpyrazolo[1,5-a]pyrimidin-6-yl)acetic acid], the EC50 is 19 nM.

`Cc1nc2cc(-c3ncc(Cc4ccc(F)cc4)s3)nn2c(C2CCC(C)(C)CC2)c1[C@H](OC(C)(C)C)C(=O)O` [Example 11, (S)-2-(tert-Butoxy)-2-(7-(4,4-dimethylcyclohexyl)-2-(5-(4-fluorobenzyl)thiazol-2-yl)-5-methylpyrazolo[1,5-a]pyrimidin-6-yl)acetic acid]: the EC50 stood at 82 nM.

Regarding `Cc1nc2cc(-c3ncc(Cc4ccc(F)cc4)o3)nn2c(C2=CCC(C)(C)CC2)c1[C@H](OC(C)(C)C)C(=O)O` [Example 12, (S)-2-(tert-Butoxy)-2-(7-(4,4-dimethylcyclohex-1-en-1-yl)-2-(5-(4-fluorobenzyl)oxazol-2-yl)-5-methylpyrazolo[1,5-a]pyrimidin-6-yl)acetic acid], the EC50 worked out at 13 nM.

Turning to `Cc1nc2cc(-c3ncc(Cc4ccc(F)cc4)s3)nn2c(N2CCC(C)(C)CC2)c1[C@H](OC(C)(C)C)C(=O)O` [Example 13, (S)-2-(tert-Butoxy)-2-(7-(4,4-dimethylpiperidin-1-yl)-2-(5-(4-fluorobenzyl)thiazol-2-yl)-5-methylpyrazolo[1,5-a]pyrimidin-6-yl)acetic acid], the EC50 came out at 14 nM.

As for `Cc1nc2cc(-c3ncc(C(C)c4ccc(F)cc4)s3)nn2c(N2CCC(C)(C)CC2)c1[C@H](OC(C)(C)C)C(=O)O` (stereo partly drawn) [Example 14, (2S)-2-(tert-Butoxy)-2-(7-(4,4-dimethylpiperidin-1-yl)-2-(5-(1-(4-fluorophenyl)ethyl)thiazol-2-yl)-5-methylpyrazolo[1,5-a]pyrimidin-6-yl)acetic acid], the EC50 was found to be 27 nM.

As for `Cc1cc(Cc2cnc(-c3cc4nc(C)c([C@H](OC(C)(C)C)C(=O)O)c(N5CCC(C)(C)CC5)n4n3)s2)ccc1F` [Example 15, (S)-2-(tert-Butoxy)-2-(7-(4,4-dimethylpiperidin-1-yl)-2-(5-(4-fluoro-3-methylbenzyl)thiazol-2-yl)-5-methylpyrazolo[1,5-a]pyrimidin-6-yl)acetic acid], the EC50 came to 19 nM.

Turning to `Cc1nc2cc(-c3ncc(CCc4ccc(F)cc4)s3)nn2c(N2CCC(C)(C)CC2)c1[C@H](OC(C)(C)C)C(=O)O` [Example 16, (S)-2-(tert-Butoxy)-2-(7-(4,4-dimethylpiperidin-1-yl)-2-(5-(4-fluorophenethyl)thiazol-2-yl)-5-methylpyrazolo[1,5-a]pyrimidin-6-yl)acetic acid], the EC50 came out at 38 nM.

Regarding `CCC1(C)CCN(c2c([C@H](OC(C)(C)C)C(=O)O)c(C)nc3cc(-c4ncc(Cc5ccc(F)cc5)s4)nn23)CC1` [Example 17, (S)-2-(tert-Butoxy)-2-(7-(4-ethyl-4-methylpiperidin-1-yl)-2-(5-(4-fluorobenzyl)thiazol-2-yl)-5-methylpyrazolo[1,5-a]pyrimidin-6-yl)acetic acid], the EC50 is 13 nM.

In the case of `Cc1nc2cc(-c3ncc(Cc4ccc(F)cc4)s3)nn2c(N2CCC(C)(O)CC2)c1[C@H](OC(C)(C)C)C(=O)O` [Example 18, (S)-2-(tert-Butoxy)-2-(2-(5-(4-fluorobenzyl)thiazol-2-yl)-7-(4-hydroxy-4-methylpiperidin-1-yl)-5-methylpyrazolo[1,5-a]pyrimidin-6-yl)acetic acid], the EC50 came to 143 nM.

`CC1=CCN(c2c([C@H](OC(C)(C)C)C(=O)O)c(C)nc3cc(-c4ncc(Cc5ccc(F)cc5)s4)nn23)CC1` [Example 19, (S)-2-(tert-Butoxy)-2-(2-(5-(4-fluorobenzyl)thiazol-2-yl)-5-methyl-7-(4-methyl-5,6-dihydropyridin-1(2H)-yl)pyrazolo[1,5-a]pyrimidin-6-yl)acetic acid]: the EC50 came out at 105 nM.

On to `Cc1nc2cc(-c3ncc(Cc4ccc(F)cc4)s3)nn2c(N2CC=C(c3ccccc3)CC2)c1[C@H](OC(C)(C)C)C(=O)O` [Example 20, (S)-2-(tert-Butoxy)-2-(2-(5-(4-fluorobenzyl)thiazol-2-yl)-5-methyl-7-(4-phenyl-5,6-dihydropyridin-1(2H)-yl)pyrazolo[1,5-a]pyrimidin-6-yl)acetic acid], for which the EC50 worked out at 877 nM.

For `Cc1nc2cc(-c3ncc(Cc4ccc(F)cc4)s3)nn2c(N2CCC(C)(CO)CC2)c1[C@H](OC(C)(C)C)C(=O)O` [Example 21, (S)-2-(tert-Butoxy)-2-(2-(5-(4-fluorobenzyl)thiazol-2-yl)-7-(4-(hydroxymethyl)-4-methylpiperidin-1-yl)-5-methylpyrazolo[1,5-a]pyrimidin-6-yl)acetic acid], the EC50 is 75 nM.

`COC1(C)CCN(c2c([C@H](OC(C)(C)C)C(=O)O)c(C)nc3cc(-c4ncc(Cc5ccc(F)cc5)s4)nn23)CC1` [Example 22, (S)-2-(tert-Butoxy)-2-(2-(5-(4-fluorobenzyl)thiazol-2-yl)-7-(4-methoxy-4-methylpiperidin-1-yl)-5-methylpyrazolo[1,5-a]pyrimidin-6-yl)acetic acid]: the concentration giving a half-maximal response (EC50) amounted to 12 nM.

Consider `C=CC1(C)CCN(c2c([C@H](OC(C)(C)C)C(=O)O)c(C)nc3cc(-c4ncc(Cc5ccc(F)cc5)s4)nn23)CC1` [Example 23, (S)-2-(tert-Butoxy)-2-(2-(5-(4-fluorobenzyl)thiazol-2-yl)-5-methyl-7-(4-methyl-4-vinylpiperidin-1-yl)pyrazolo[1,5-a]pyrimidin-6-yl)acetic acid], for which the EC50 stood at 12 nM.

For the compound `Cc1nc2cc(-c3ncc(Cc4ccc(F)cc4)s3)nn2c(N2CCC(C)(C3CC3)CC2)c1[C@H](OC(C)(C)C)C(=O)O` [Example 24, (S)-2-(tert-Butoxy)-2-(7-(4-cyclopropyl-4-methylpiperidin-1-yl)-2-(5-(4-fluorobenzyl)thiazol-2-yl)-5-methylpyrazolo[1,5-a]pyrimidin-6-yl)acetic acid], the EC50 is 26 nM.

With `Cc1nc2cc(-c3ccc(Cc4ccc(F)cc4)s3)nn2c(N2CCC(C)(C)CC2)c1[C@H](OC(C)(C)C)C(=O)O` [Example 25, (S)-2-(tert-Butoxy)-2-(7-(4,4-dimethylpiperidin-1-yl)-2-(5-(4-fluorobenzyl)thiophen-2-yl)-5-methylpyrazolo[1,5-a]pyrimidin-6-yl)acetic acid], the EC50 is 23 nM.
